Measured values as given in PubChem BioAssay AID248 (DTP/NCI, 2004).
“And” between values parts separate entries of the source, which are not always exact repeats. Equal values may be shown once. Inconclusive results and toxic doses are left out.

Test system: L1210 leukemia ip in BDF1 mice, survival T/C
Assay: NCI In Vivo Anticancer Drug Screen. Data for tumor model L1210 Leukemia (intraperitoneal) in B6D2F1 (BDF1) mice
Conditions: endpoint: mean survival time, higher = longer survival
How it was run: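 Tumor cells were implanted, animals were treated, and survival was followed. The result divides the treated measurement by the vehicle-control measurement.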

[1] = dose: 100.0 mg/kg/injection, schedule: Q04DX002 (ip), vehicle: saline with Tween-80
[2] = dose: 200.0 mg/kg/injection, schedule: Q04DX002 (ip), vehicle: saline with Tween-80
[3] = dose: 100.0 mg/kg/injection, schedule: Q01DX009 (ip), vehicle: saline with Tween-80
[4] = dose: 100.0 mg/kg/injection, schedule: Q04DX003 (ip), vehicle: saline with Tween-80
[5] = dose: 100.0 mg/kg/injection, schedule: Q01DX009 (ip), vehicle: Klucel (hydroxypropylcellulose) (HPC)
[6] = dose: 200.0 mg/kg/injection, schedule: Q01DX009 (ip), vehicle: Klucel (hydroxypropylcellulose) (HPC)
[7] = dose: 400.0 mg/kg/injection, schedule: Q01DX009 (ip), vehicle: Klucel (hydroxypropylcellulose) (HPC)
[8] = dose: 100.0 mg/kg/injection, schedule: Q04DX003 (ip), vehicle: Klucel (hydroxypropylcellulose) (HPC)
[9] = dose: 200.0 mg/kg/injection, schedule: Q04DX003 (ip), vehicle: Klucel (hydroxypropylcellulose) (HPC)
[10] = dose: 400.0 mg/kg/injection, schedule: Q04DX003 (ip), vehicle: Klucel (hydroxypropylcellulose) (HPC)
[11] = dose: 100.0 mg/kg/injection, schedule: Q04DX002 (ip), vehicle: saline
[12] = dose: 200.0 mg/kg/injection, schedule: Q04DX002 (ip), vehicle: saline
[13] = dose: 100.0 mg/kg/injection, schedule: Q04DX002 (ip), vehicle: Klucel (hydroxypropylcellulose) (HPC)
[14] = dose: 200.0 mg/kg/injection, schedule: Q04DX002 (ip), vehicle: Klucel (hydroxypropylcellulose) (HPC)
[15] = dose: 200.0 mg/kg/injection, schedule: Q04DX003 (ip), vehicle: saline with Tween-80
[16] = dose: 400.0 mg/kg/injection, schedule: Q04DX003 (ip), vehicle: saline with Tween-80
[17] = dose: 100.0 mg/kg/injection, schedule: Q01DX001 (ip), vehicle: carboxymethylcellulose (CMC)
[18] = dose: 200.0 mg/kg/injection, schedule: Q01DX001 (ip), vehicle: carboxymethylcellulose (CMC)
[19] = dose: 400.0 mg/kg/injection, schedule: Q01DX001 (ip), vehicle: carboxymethylcellulose (CMC)
[20] = dose: 50.0 mg/kg/injection, schedule: Q01DX001 (ip), vehicle: carboxymethylcellulose (CMC)

SMILES: c1cc[c]([Pb]([S]c2nc3ccccc3[nH]2)([c]2ccccc2)[c]2ccccc2)cc1
- T/C (dose: 3.12 mg/kg/injection, schedule: Q04DX002 (ip), vehicle: gum acacia): 104 % of control
- T/C (dose: 6.25 mg/kg/injection, schedule: Q04DX002 (ip), vehicle: gum acacia): 101 % of control
- T/C (dose: 12.5 mg/kg/injection, schedule: Q04DX002 (ip), vehicle: gum acacia): 97 % of control and 101 % of control

SMILES: CC(=O)ON1C(=O)c2cccc3cccc(c23)C1=O
- T/C [1]: 102 % of control
- T/C [2]: 109 % of control

SMILES: CN(Cc1cnc2nc(N)nc(N)c2n1)c1c(Cl)cc(C(=O)NC(CCC(=O)O)C(=O)O)cc1Br (configuration not stated)
- T/C (dose: 12.5 mg/kg/injection, schedule: Q01DX Z (ip), vehicle: saline): 162 % of control
- T/C (dose: 25.0 mg/kg/injection, schedule: Q01DX Z (ip), vehicle: saline): 196 % of control
- T/C (dose: 50.0 mg/kg/injection, schedule: Q01DX Z (ip), vehicle: saline): 241 % of control and 267 % of control
- T/C (dose: 200.0 mg/kg/injection, schedule: Q01DX Z (ip), vehicle: saline): 101 % of control

SMILES: CC(CN1CCN(C)CC1)CN1c2ccccc2Sc2ccc(C(F)(F)F)cc21 (configuration not stated)
- T/C (dose: 3.12 mg/kg/injection, schedule: Q01DX009 (ip), vehicle: saline): 101 % of control
- T/C (dose: 6.25 mg/kg/injection, schedule: Q01DX009 (ip), vehicle: saline): 106 % of control
- T/C (dose: 12.5 mg/kg/injection, schedule: Q01DX009 (ip), vehicle: saline): 113 % of control
- T/C (dose: 25.0 mg/kg/injection, schedule: Q01DX009 (ip), vehicle: saline with Tween-80): 111 % of control
- T/C (dose: 25.0 mg/kg/injection, schedule: Q01DX009 (ip), vehicle: saline): 117 % of control
- T/C (dose: 25.0 mg/kg/injection, schedule: Q04DX003 (ip), vehicle: saline): 101 % of control
- T/C (dose: 50.0 mg/kg/injection, schedule: Q01DX009 (ip), vehicle: saline with Tween-80): 111 % of control
- T/C (dose: 50.0 mg/kg/injection, schedule: Q01DX009 (ip), vehicle: saline): 98 % of control
- T/C (dose: 50.0 mg/kg/injection, schedule: Q04DX003 (ip), vehicle: saline): 113 % of control
- T/C [3]: 96 % of control
- T/C [4]: 107 % of control

SMILES: CC(CCC(=O)O)C1CCC2C3CCC4CC(OC=O)CCC4(C)C3CC(=O)C12C (configuration not stated)
- T/C (dose: 100.0 mg/kg/injection, schedule: Q01DX001 (ip), vehicle: saline with Tween-80): 98 % of control
- T/C (dose: 200.0 mg/kg/injection, schedule: Q01DX001 (ip), vehicle: saline with Tween-80): 95 % of control
- T/C (dose: 400.0 mg/kg/injection, schedule: Q01DX001 (ip), vehicle: saline with Tween-80): 101 % of control

SMILES: COc1ccc(/C=N/NC(=O)c2ccc(O)cc2)cc1
- T/C [5]: 100 % of control
- T/C [6]: 98 % of control
- T/C [7]: 94 % of control

SMILES: CC(=O)N(C)c1ccc(S(=O)(=O)Cl)cc1
- T/C [3]: 101 % of control
- T/C (dose: 200.0 mg/kg/injection, schedule: Q01DX009 (ip), vehicle: saline with Tween-80): 95 % of control

SMILES: Nc1cccc2c1C(=O)c1c(c(O)c3ccccc3c1O)C2=O
- T/C [8]: 100 % of control
- T/C [9]: 96 % of control
- T/C [10]: 96 % of control

SMILES: CN(C)CCC[N+]1([O-])c2ccccc2CCc2ccccc21
- T/C (dose: 9.37 mg/kg/injection, schedule: Q01DX009 (ip), vehicle: saline): 102 % of control
- T/C (dose: 18.75 mg/kg/injection, schedule: Q01DX009 (ip), vehicle: saline): 108 % of control
- T/C (dose: 18.75 mg/kg/injection, schedule: Q04DX003 (ip), vehicle: saline): 102 % of control
- T/C (dose: 37.5 mg/kg/injection, schedule: Q01DX009 (ip), vehicle: saline): 97 % of control
- T/C (dose: 37.5 mg/kg/injection, schedule: Q04DX003 (ip), vehicle: saline): 96 % of control
- T/C (dose: 75.0 mg/kg/injection, schedule: Q01DX009 (ip), vehicle: saline): 102 % of control
- T/C (dose: 75.0 mg/kg/injection, schedule: Q04DX003 (ip), vehicle: saline): 96 % of control
- T/C (dose: 150.0 mg/kg/injection, schedule: Q04DX003 (ip), vehicle: saline): 88 % of control

SMILES: O=C(NC1CCCCC1)OCCOc1ccccc1
- T/C [5]: 95 % of control
- T/C [6]: 103 % of control
- T/C [7]: 97 % of control

SMILES: COc1ccc(CC2COC(O)C2Cc2ccc(OC3OC(CO)C(O)C(O)C3O)c(OC)c2)cc1OC (configuration not stated)
- T/C [11]: 102 % of control
- T/C [12]: 112 % of control
- T/C (dose: 400.0 mg/kg/injection, schedule: Q04DX002 (ip), vehicle: saline): 87 % of control

SMILES: CC1CC1C(N)=O (configuration not stated)
- T/C [11]: 97 % of control
- T/C [12]: 110 % of control

SMILES: CCOC(=O)C1(C)CCCCC1=O (configuration not stated)
- T/C (dose: 100.0 mg/kg/injection, schedule: Q01DX009 (ip), vehicle: saline sonified): 110 % of control
- T/C (dose: 200.0 mg/kg/injection, schedule: Q01DX009 (ip), vehicle: saline sonified): 96 % of control
- T/C (dose: 400.0 mg/kg/injection, schedule: Q01DX009 (ip), vehicle: saline sonified): 105 % of control

SMILES: O=C1OCC/C1=C/OC(=O)c1ccccc1
- T/C [13]: 97 % of control
- T/C [14]: 87 % of control

SMILES: C(=N/Sc1ccccc1)/c1ccccc1
- T/C [13]: 98 % of control
- T/C [14]: 98 % of control
- T/C (dose: 400.0 mg/kg/injection, schedule: Q04DX002 (ip), vehicle: Klucel (hydroxypropylcellulose) (HPC)): 112 % of control

SMILES: Cc1ccc(NC(=S)/C(=C(/[O-])c2ccc([N+](=O)[O-])cc2)[n+]2ccccc2)c(C)c1
- T/C [5]: 101 % of control
- T/C [6]: 97 % of control
- T/C [7]: 95 % of control

SMILES: c1ccc([Si](c2ccccc2)(c2ccccc2)c2cccs2)cc1
- T/C [4]: 93 % of control
- T/C [15]: 90 % of control
- T/C [16]: 88 % of control

SMILES: CCCCCCCCCCCCCCCCS(=O)(=O)N/N=C/c1ccc(Cl)c([N+](=O)[O-])c1
- T/C [17]: 98 % of control
- T/C [18]: 107 % of control
- T/C [19]: 103 % of control

SMILES: c1cc[c]([Bi]([c]2ccccc2)[c]2ccccc2)cc1
- T/C (dose: 50.0 mg/kg/injection, schedule: Q01DX001 (ip), vehicle: other): 95 % of control
- T/C (dose: 100.0 mg/kg/injection, schedule: Q01DX001 (ip), vehicle: other): 97 % of control
- T/C [4]: 97 % of control
- T/C (dose: 200.0 mg/kg/injection, schedule: Q01DX001 (ip), vehicle: other): 97 % of control
- T/C [15]: 102 % of control
- T/C (dose: 400.0 mg/kg/injection, schedule: Q01DX001 (ip), vehicle: other): 97 % of control
- T/C [16]: 103 % of control

SMILES: O=C(c1ccccc1)c1ccc(C2CCCCC2)cc1
- T/C [20]: 98 % of control
- T/C [17]: 104 % of control
- T/C [18]: 98 % of control
- T/C [19]: 100 % of control

SMILES: CCCCCCP(=O)(CCCCCC)CCCCCC
- T/C (dose: 44.0 mg/kg/injection, schedule: Q01DX Z (ip), vehicle: methylcellulose (MC)): 89 % of control
- T/C (dose: 55.0 mg/kg/injection, schedule: Q01DX Z (ip), vehicle: methylcellulose (MC)): 161 % of control
- T/C (dose: 66.0 mg/kg/injection, schedule: Q01DX Z (ip), vehicle: methylcellulose (MC)): 93 % of control
- T/C (dose: 83.0 mg/kg/injection, schedule: Q01DX Z (ip), vehicle: methylcellulose (MC)): 172 % of control
- T/C (dose: 100.0 mg/kg/injection, schedule: Q01DX Z (ip), vehicle: methylcellulose (MC)): 96 % of control
- T/C [8]: 97 % of control
- T/C [9]: 110 % of control
- T/C [10]: 90 % of control

SMILES: Nc1ncc(CSCc2ccccc2)c(-c2ccccc2)n1
- T/C [1]: 100 % of control
- T/C [2]: 96 % of control
- T/C (dose: 400.0 mg/kg/injection, schedule: Q04DX002 (ip), vehicle: saline with Tween-80): 96 % of control

SMILES: O=C1N/C(=N\OCc2ccccc2)CC(NOCc2ccccc2)N1C1OC(CO)C(O)C1O (configuration not stated)
- T/C (dose: 100.0 mg/kg/injection, schedule: Q04DX003 (ip), vehicle: saline): 92 % of control
- T/C (dose: 200.0 mg/kg/injection, schedule: Q04DX003 (ip), vehicle: saline): 92 % of control

SMILES: CC(=O)Nc1cc(Cl)cc2c1-c1ccc(Cl)cc1C2N(C)C (configuration not stated)
- T/C [20]: 98 % of control
- T/C [17]: 90 % of control
- T/C [18]: 106 % of control
- T/C [19]: 98 % of control
